Test results reported in patent US4636491A, “Renin inhibitory peptides having improved solubility” (Merck & Co., Inc., priority 1984, dated 1987).
Values after ≈ are worked out from the molar mass of the structure shown. Like-named read-outs stand apart in the source and are kept apart here. *1 amine or outer side, *2 acyl side, *3 side chain or, on linkers, in order; H or OH if unused. Where a SMILES comes first, the peptide text is derived from it. [ ]: non-standard residue; d: D form. The star is where a group is joined. ξ: configuration not given here. NH(3-guanidinomethylbenzyl) = NC(N)=NCc1cccc(CN*)c1; NH(3-OCH2COOH-benzyl) = O=C(O)COc1cccc(CN*)c1; X1 = NCc1cccc(CC(N[*:1])C(=O)[*:2])c1; Sta = CC(C)C[C@H](N)[C@@H](O)CC(=O)O; NHCH2CH2SO3H = O=S(=O)(O)CCN*; X4 = NC(Cc1cccc(CN*)c1)C(=O)O; X3 = [O-][n+]1ccc(CN*)cc1; ξPhg = NC(C(=O)O)c1ccccc1; Boc = CC(C)(C)OC(=O)*; X2 = NC(CN*)c1ccccn1

How the values were obtained:
[1] = Solubility of the peptides in pH 7.4 buffer and in H2O; format: physicochemical
Protocol: (§1) Following the standard solid phase methodology described above in Example 1, additional inhibitory peptides of the present invention were prepared. The peptides prepared are set out in the following table. Satisfactory amino acid analyses were obtained by Spinco method for each listed peptide. Also included in the table is solubility data of three types from which the improved solubility characteristics of the peptides of the present invention may be judged.

[2] = Partition coefficient; format: physicochemical
Protocol: as §1

[3] = biological target: T1, human kidney renin (Homo sapiens, UniProt P00797); assay: Inhibition of purified human kidney renin; format: biochemical; conditions: dissociation constant of the inhibited enzyme-inhibitor complex
T1 construct: human kidney renin purified as described in Bangham; from tissue; host or cells: human kidney
T1 sequence (P00797 67-406): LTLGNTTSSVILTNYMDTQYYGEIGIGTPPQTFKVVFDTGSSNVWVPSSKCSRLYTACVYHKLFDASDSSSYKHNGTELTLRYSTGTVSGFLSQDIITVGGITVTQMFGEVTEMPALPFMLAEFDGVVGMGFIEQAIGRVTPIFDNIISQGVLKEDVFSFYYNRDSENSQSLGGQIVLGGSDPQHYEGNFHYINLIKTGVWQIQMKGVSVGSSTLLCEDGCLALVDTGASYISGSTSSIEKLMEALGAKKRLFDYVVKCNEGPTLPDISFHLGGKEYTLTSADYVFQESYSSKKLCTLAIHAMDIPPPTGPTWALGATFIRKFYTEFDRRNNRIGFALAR
Protocol: (§2) Assays were carried out in order to determine the inhibitory potency of the peptides of the present invention. […] Another assay measured the inhibition of human kidney renin purified as described in Bangham, D. R., Robertson, I., Robinson, J. I. S., Robinson, C. J., and Tree, M., Clinical Science and Molecular Medicine, 48 (Supp. 2): 136s-159s (1975), and further purified by affinity chromatography on pepstatin-aminohexyl-Sepharase described in Poe, M., Wu., J. K., Florance, J. R., Radkey, J. A., Bennet, C. D., and Hoogsteen, K., J. Biol. Chem. 258:2209-2216 (1983). The assay was also in accordance with Poe et al. cited above. Further assays measured human plasma renin and dog plasma renin in accordance with procedures described in Biger et al, Nature, 303:81-84 (1983).
The results expressed as KI values refer to the dissociation constant of the inhibited enzyme-inhibitor complex. This KI value was obtained as described above.

[4] = biological target: T2, human plasma renin (Homo sapiens, UniProt P00797); assay: Inhibition of human plasma renin; format: biochemical
T2 construct: Further assays measured human plasma renin and dog plasma renin; from tissue; host or cells: human plasma
T2 sequence (P00797 67-406): T1 sequence (P00797 67-406)
Protocol: as §2

[5] = biological target: T3, dog plasma renin (Canis lupus familiaris, UniProt Q6DYE7); assay: Inhibition of dog plasma renin; format: biochemical; conditions: for Dog Plasma, % inhibition at 1000: at 1000 .eta.M
T3 construct: Further assays measured human plasma renin and dog plasma renin; from tissue; host or cells: dog plasma
T3 sequence (Q6DYE7 66-403): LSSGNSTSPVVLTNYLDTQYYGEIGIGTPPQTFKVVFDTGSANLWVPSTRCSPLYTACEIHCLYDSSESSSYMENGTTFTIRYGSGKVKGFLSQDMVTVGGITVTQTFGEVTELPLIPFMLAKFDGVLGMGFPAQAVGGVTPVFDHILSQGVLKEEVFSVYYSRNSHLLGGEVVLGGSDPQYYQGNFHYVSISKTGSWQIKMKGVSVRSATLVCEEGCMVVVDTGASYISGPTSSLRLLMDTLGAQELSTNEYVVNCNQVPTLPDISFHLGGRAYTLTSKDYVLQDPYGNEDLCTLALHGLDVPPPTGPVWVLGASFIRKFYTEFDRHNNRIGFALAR
Protocol: as §2

[6] = system: nephrectomized rats; conditions: after the injection of hog renin into nephrectomized rats; cited from earlier work
[7] = water, H2O, read-out: H2O mg/ml (solubility)
[8] = pH 7.4, aqueous buffer, pH 7.4 Buffer mg/ml (solubility)

CC(C)C[C@H](NC(=O)C[C@H](O)[C@H](CC(C)C)NC(=O)[C@H](Cc1c[nH]cn1)NC(=O)[C@H](Cc1ccccc1)NC(=O)OC(C)(C)C)C(=O)NCCC(N)C(=O)O (single isomer, unassigned) [Example 5 (Isomer A)]
solubility [1, 7]: 1.72 mg/mL (≈ 2230 µM) | Partition Coefficient [2]: 2.1 | Ki [3]: 2.4 nM | Human Plasma, % inhibition at 1000 ([4]; at 1000 .eta.M): 25% | Dog Plasma, % inhibition at 1000 ([5]; listed as 5 A): 15%

CC(C)C[C@H](NC(=O)C[C@H](O)[C@H](CC(C)C)NC(=O)[C@H](Cc1c[nH]cn1)NC(=O)[C@H](Cc1ccccc1)NC(=O)OC(C)(C)C)C(=O)NCCC(N)C(=O)O (single isomer, unassigned) [Example 5 (Isomer B)]
Partition Coefficient [2]: 10.7 | Ki [3]: 2200 nM | Human Plasma, % inhibition at (concentration not given) [4]: 0% | Dog Plasma, % inhibition at 1000 ([5]; listed as 5 B): 22%

CC(C)C[C@H](NC(=O)C[C@H](O)[C@H](CC(C)C)NC(=O)[C@H](Cc1c[nH]cn1)NC(=O)[C@H](Cc1ccccc1)NC(=O)OC(C)(C)C)C(=O)NCC(N)c1ccccn1 (stereo partly drawn) [Example 2] (Boc-FH[Sta]L-X2)
solubility [1, 8]: 0.32 mg/mL (≈ 404 µM) | solubility ([1]; water, H2O mg/ml (solubility)): 0.71 mg/mL (≈ 896 µM) | Partition Coefficient [2]: infinity

CC(C)C[C@H](NC(=O)C[C@H](O)[C@H](CC(C)C)NC(=O)[C@H](Cc1c[nH]cn1)NC(=O)[C@H](Cc1ccccc1)NC(=O)OC(C)(C)C)C(=O)NCc1cccc(CN=C(N)N)c1 [Example 3] (Boc-FH[Sta]L-{NH(3-guanidinomethylbenzyl)})
solubility [1, 8]: 0.77 mg/mL (≈ 924 µM) | solubility ([1]; water, H2O mg/ml (solubility)): 2.46 mg/mL (≈ 2950 µM) | Partition Coefficient [2]: 10.6

CC(C)C[C@H](NC(=O)C[C@H](O)[C@H](CC(C)C)NC(=O)[C@H](Cc1c[nH]cn1)NC(=O)[C@H](Cc1ccccc1)NC(=O)OC(C)(C)C)C(=O)NC(Cc1cccc(CN)c1)C(=O)O (stereo partly shown) [Example 4] (Boc-FH[Sta]L[X1]-OH)
solubility [1, 8]: 1.3 mg/mL (≈ 1530 µM) | solubility ([1]; water, H2O mg/ml (solubility)): 0.33 mg/mL (≈ 389 µM) | Partition Coefficient [2]: 68.2 | Ki [3]: 4.9 nM

CC(C)C[C@H](NC(=O)C[C@H](O)[C@H](CC(C)C)NC(=O)[C@H](Cc1c[nH]cn1)NC(=O)[C@H](Cc1ccccc1)NC(=O)OC(C)(C)C)C(=O)NCc1cccc(CC(N)C(=O)O)c1 (stereo partly drawn) [Example 6] (Boc-FH[Sta]L-X4)
Ki [3]: 12 nM | Human Plasma, % inhibition at (concentration not given) [4]: 15% | IC50 ([5]; read-out: Dog Plasma I50): 120 nM

CC(C)C[C@H](NC(=O)C[C@H](O)[C@H](CC(C)C)NC(=O)[C@H](Cc1c[nH]cn1)NC(=O)[C@H](Cc1ccccc1)NC(=O)OC(C)(C)C)C(=O)NCc1cc[n+]([O-])cc1 [Example 7] (Boc-FH[Sta]L-X3)
solubility [1, 8]: 3.3 mg/mL (≈ 4240 µM) | solubility ([1]; water, H2O mg/ml (solubility)): 5.1 mg/mL (≈ 6550 µM)

CC(C)C[C@H](NC(=O)C[C@H](O)[C@H](CC(C)C)NC(=O)[C@H](Cc1c[nH]cn1)NC(=O)[C@H](Cc1ccccc1)NC(=O)OC(C)(C)C)C(=O)NC(C(=O)O)c1ccccc1 (stereo partly shown) [Example 8] (Boc-FH[Sta]L[ξPhg]-OH)
solubility ([1]; pH 7.4 buffer, pH 7.4, aqueous buffer, pH 7.4 buffer, read-out: pH 7.4 Buffer mg/ml (solubility)): 1.8 mg/mL (≈ 2230 µM) | solubility [1, 7]: 0.6 mg/mL (≈ 744 µM) | Partition Coefficient [2]: 16.5 | Ki [3]: 990 nM | Human Plasma, % inhibition at (concentration not given) [4]: 44% | Dog Plasma, % inhibition at 1000 [5]: 45%

CC(C)C[C@H](NC(=O)C[C@H](O)[C@H](CC(C)C)NC(=O)[C@H](Cc1c[nH]cn1)NC(=O)[C@H](Cc1ccccc1)NC(=O)OC(C)(C)C)C(=O)NCc1cccc(OCC(=O)O)c1 [Example 9] (Boc-FH[Sta]L-{NH(3-OCH2COOH-benzyl)})
solubility [1, 8]: 1.5 mg/mL (≈ 1790 µM) | solubility ([1]; water, H2O mg/ml (solubility)): 0.23 mg/mL (≈ 275 µM) | Partition Coefficient [2]: infinity

CC(C)C[C@H](NC(=O)C[C@H](O)[C@H](CC(C)C)NC(=O)[C@H](Cc1c[nH]cn1)NC(=O)[C@H](Cc1ccccc1)NC(=O)OC(C)(C)C)C(=O)NCCS(=O)(=O)O [Example 10] (Boc-FH[Sta]L-NHCH2CH2SO3H)
solubility [1, 8]: > 9 mg/mL | solubility ([1]; water, H2O mg/ml (solubility)): > 9 mg/mL | Partition Coefficient [2]: 4.34

pepstatin
blood pressure in vivo [6]: reduce blood pressure
